Like-named read-outs stand apart in the source and are kept apart here.
Assays:
Type in all cases: cell-based, human
[1] = system: LNCap (prostate carcinoma); test: Cytotoxicity/growth inhibition assay, LNCap; conditions: read-out: IC50 (LNCap)
Source text: (§1) The human cancer cell lines DLD-1 (colorectal adenocarcinoma), LNCap (prostate carcinoma), and OVCAR-3 (ovarian carcinoma) were obtained from the American Type Culture Collection, Manassas, Va., U.S.A., and HL-60 (promyeloid myelocytic leukemia), MX-1 (breast carcinoma), P388, and P388ADR from the National Cancer Institute, Bethesda, Md., U.S.A. Carboplatin, doxorubicin, and melphalan were obtained from Sigma-Aldrich Chemical Company, St. Louis, Mo., U.S.A. The CellTiter-Glo assay kit was obtained from Promega Corporation, Madison, Wis., U.S.A., and the Cellular DNA Cytometric Analysis Reagent Kit from Roche Diagnostics Corporation, Indianapolis, Ind., U.S.A. Lambda DNA was obtained from New England Biolabs, Beverly, Mass., U.S.A., and SYBR-Gold from Molecular Probes, Inc., Eugene, Oreg., U.S.A. The DNeasy Tissue Kit was obtained from Qiagen Inc., Valencia, Calif., U.S.A., and AmpliTaq Gold DNA polymerase and PCR reagents from Applied Biosystems, Foster City, Calif., U.S.A. All products were used in accordance with manufacturer's directions. All assays were conducted in triplicate wells, with dimethyl sulfoxide (DMSO) solvent control. The extent of cell growth was expressed as a percentage of the signal from the solvent control wells.
(§2) Log-phase cells were trypsinized, collected by centrifugation, and resuspended in a small volume of fresh medium, and the density of viable cells was determined following Trypan Blue staining. Cells were diluted in fresh media (3×10^3 cells/mL for MX-1, 3×10^3 cells/mL for DLD-1, and 6×10^3 cells/mL for LNCap cells), the test compounds (concentrations between 0.1 and 200 μM, dissolved in DMSO, 50 μL) added immediately after dilution to achieve a final DMSO concentration of 0.5%, then the suspensions added at 150 μL/well to 96-well plates, and incubated for several hours to allow attachment in the case of adherent cells. The cells were cultured for approximately three doubling times (3 days for MX-1 and 4 days for DLD-1 and LNCap). The cells were then collected by centrifugation, and 100 μL of the culture supernatant was replaced by the CellTiter-Glo reagent. After incubation for 15 minutes at room temperature, and the plate was read with a luminometer.

[2] = system: MX-1 (breast carcinoma); test: Cytotoxicity/growth inhibition assay, MX-1; conditions: read-out: IC50 (MX-1)
Source text: as §1, §2

[3] = system: DLD-1 (colorectal adenocarcinoma); test: Cytotoxicity/growth inhibition assay, DLD-1; conditions: read-out: IC50 (DLD-1)
Source text: as §1, §2

[4] = LNCap cells, 4 days culture, CellTiter-Glo, 0.1-200 μM tested
[5] = MX-1 cells, 3 days culture, CellTiter-Glo, 0.1-200 μM tested
[6] = DLD-1 cells, 4 days culture, CellTiter-Glo, 0.1-200 μM tested

SMILES	IC50 [1, 4] [µM]	IC50 [2, 5] [µM]	IC50 [3, 6] [µM]	IC50 ([1]; Homo sapiens, LNCaP, 96 h) [µM]	IC50 ([2]; Homo sapiens, MX1, 72 h) [µM]	IC50 ([3]; Homo sapiens, DLD-1, 96 h) [µM]
O=P(OCCS(=O)(=O)CCCS(=O)(=O)CCOP(=O)(N(CCCl)CCCl)N(CCCl)CCCl)(N(CCCl)CCCl)N(CCCl)CCCl [Compound 3B]	14.8	7.4	4.3	–	–	–
CC(C)S(=O)(=O)CCOP(=O)(N(CCCl)CCCl)N(CCCl)CCCl [Compound 4A]	67.8	24	12.7	–	–	–
O=P(OCCS(=O)(=O)CCCCS(=O)(=O)CCOP(=O)(N(CCCl)CCCl)N(CCCl)CCCl)(N(CCCl)CCCl)N(CCCl)CCCl [Compound 4B]	11.5	4.1	2.9	–	–	–
CC(C)CS(=O)(=O)CCOP(=O)(N(CCCl)CCCl)N(CCCl)CCCl [Compound 6A]	17.7	4.6	6.8	–	–	–
CC(C)(C)S(=O)(=O)CCOP(=O)(N(CCCl)CCCl)N(CCCl)CCCl [Compound 7A]	165	20.6	21.8	–	–	–
O=P(OCCS(=O)(=O)CCCCCCCCS(=O)(=O)CCOP(=O)(N(CCCl)CCCl)N(CCCl)CCCl)(N(CCCl)CCCl)N(CCCl)CCCl [Compound 7B]	9.5	1.9	1.5	–	–	–
CCC(C)CS(=O)(=O)CCOP(=O)(N(CCCl)CCCl)N(CCCl)CCCl (stereo not drawn) [Compound 8A]	40.9	17.5	7	–	–	–
O=P(OCCS(=O)(=O)CCOCCS(=O)(=O)CCOP(=O)(N(CCCl)CCCl)N(CCCl)CCCl)(N(CCCl)CCCl)N(CCCl)CCCl [Compound 8B]	28	10.9	6.5	–	–	–
CC(C)CCS(=O)(=O)CCOP(=O)(N(CCCl)CCCl)N(CCCl)CCCl [Compound 9A]	17.3	5.8	5.9	–	–	–
O=P(OCCS(=O)(=O)CCOCCOCCS(=O)(=O)CCOP(=O)(N(CCCl)CCCl)N(CCCl)CCCl)(N(CCCl)CCCl)N(CCCl)CCCl [Compound 9B]	25.5	6	6.1	–	–	–
O=P(OCCS(=O)(=O)C1CCCC1)(N(CCCl)CCCl)N(CCCl)CCCl [Compound 10A]	43	14.4	7.7	–	–	–
O=P(OCCS(=O)(=O)c1ccccc1S(=O)(=O)CCOP(=O)(N(CCCl)CCCl)N(CCCl)CCCl)(N(CCCl)CCCl)N(CCCl)CCCl [Compound 10B]	1.9	10.8	6.1	–	–	–
O=P(OCCS(=O)(=O)C1CCCCC1)(N(CCCl)CCCl)N(CCCl)CCCl [Compound 11A]	18.1	10.4	4	–	–	–
O=P(OCCS(=O)(=O)c1cccc(S(=O)(=O)CCOP(=O)(N(CCCl)CCCl)N(CCCl)CCCl)c1)(N(CCCl)CCCl)N(CCCl)CCCl [Compound 11B]	4.5	3	2.1	–	–	–
CCCCCCCCS(=O)(=O)CCOP(=O)(N(CCCl)CCCl)N(CCCl)CCCl [Compound 12A]	14.1	13.9	3.5	–	–	–
O=P(OCCS(=O)(=O)c1ccc(S(=O)(=O)CCOP(=O)(N(CCCl)CCCl)N(CCCl)CCCl)cc1)(N(CCCl)CCCl)N(CCCl)CCCl [Compound 12B]	7.1	4.3	1.9	–	–	–

SMILES	IC50 [1, 4] [µM]	IC50 [2, 5] [µM]	IC50 [3, 6] [µM]	IC50 ([1]; Homo sapiens, LNCaP, 96 h) [µM]	IC50 ([2]; Homo sapiens, MX1, 72 h) [µM]	IC50 ([3]; Homo sapiens, DLD-1, 96 h) [µM]
O=P(OCCS(=O)(=O)Cc1ccccc1CS(=O)(=O)CCOP(=O)(N(CCCl)CCCl)N(CCCl)CCCl)(N(CCCl)CCCl)N(CCCl)CCCl [Compound 13B]	4.7	1.9	2.3	–	–	–
O=C(O)CS(=O)(=O)CCOP(=O)(N(CCCl)CCCl)N(CCCl)CCCl [Compound 14A, 2-[[2-[[bis[bis(2-chloroethyl)amino]phosphinyl]oxy]-ethyl]sulfonyl]acetic acid]	–	–	–	≥ 200	62.2	17.6
O=P(OCCS(=O)(=O)Cc1cccc(CS(=O)(=O)CCOP(=O)(N(CCCl)CCCl)N(CCCl)CCCl)c1)(N(CCCl)CCCl)N(CCCl)CCCl [Compound 14B]	5.7	2.3	3.2	–	–	–
O=P(OCCS(=O)(=O)Cc1ccc(CS(=O)(=O)CCOP(=O)(N(CCCl)CCCl)N(CCCl)CCCl)cc1)(N(CCCl)CCCl)N(CCCl)CCCl [Compound 15B]	4.4	1.4	2.4	–	–	–
O=P(OCCS(=O)(=O)CCO)(N(CCCl)CCCl)N(CCCl)CCCl [Compound 16A]	36.4	13	9.6	–	–	–
O=[N+]([O-])c1cc(CS(=O)(=O)CCOP(=O)(N(CCCl)CCCl)N(CCCl)CCCl)cc(CS(=O)(=O)CCOP(=O)(N(CCCl)CCCl)N(CCCl)CCCl)c1 [Compound 16B]	9.2	2.9	4.5	–	–	–
CC(=O)NCCS(=O)(=O)CCOP(=O)(N(CCCl)CCCl)N(CCCl)CCCl [Compound 17A]	13.9	6.3	4.2	–	–	–
Nc1cc(CS(=O)(=O)CCOP(=O)(N(CCCl)CCCl)N(CCCl)CCCl)cc(CS(=O)(=O)CCOP(=O)(N(CCCl)CCCl)N(CCCl)CCCl)c1 [Compound 17B]	18.6	6.2	4.6	–	–	–
O=C(O)CCC(=O)Nc1cc(CS(=O)(=O)CCOP(=O)(N(CCCl)CCCl)N(CCCl)CCCl)cc(CS(=O)(=O)CCOP(=O)(N(CCCl)CCCl)N(CCCl)CCCl)c1 [Compound 18B]	49.8	8.4	2.7	–	–	–
O=C(CS(=O)(=O)CCOP(=O)(N(CCCl)CCCl)N(CCCl)CCCl)N1CCN(Cc2ccccc2)CC1 [Compound 19A]	17.8	14.8	8.1	–	–	–
NCC(=O)Nc1cc(CS(=O)(=O)CCOP(=O)(N(CCCl)CCCl)N(CCCl)CCCl)cc(CS(=O)(=O)CCOP(=O)(N(CCCl)CCCl)N(CCCl)CCCl)c1 [Compound 19B]	52	7.6	3.8	–	–	–
O=C(CS(=O)(=O)CCOP(=O)(N(CCCl)CCCl)N(CCCl)CCCl)Nc1ccc([N+](=O)[O-])cc1 [Compound 20A]	3.6	4.3	2.8	–	–	–
CN(C)CC(=O)Nc1cc(CS(=O)(=O)CCOP(=O)(N(CCCl)CCCl)N(CCCl)CCCl)cc(CS(=O)(=O)CCOP(=O)(N(CCCl)CCCl)N(CCCl)CCCl)c1 [Compound 20B]	33.3	5.1	4	–	–	–
O=C(CS(=O)(=O)CCOP(=O)(N(CCCl)CCCl)N(CCCl)CCCl)Nc1ccc([N+](=O)[O-])c(C(F)(F)F)c1 [Compound 21A]	6.3	4.2	2.8	–	–	–
O=C(Nc1cc(CS(=O)(=O)CCOP(=O)(N(CCCl)CCCl)N(CCCl)CCCl)cc(CS(=O)(=O)CCOP(=O)(N(CCCl)CCCl)N(CCCl)CCCl)c1)C1CCCNC1 (stereo not drawn) [Compound 21B]	132	14.9	4.1	–	–	–
CN1CCN(C(=O)CS(=O)(=O)CCOP(=O)(N(CCCl)CCCl)N(CCCl)CCCl)CC1 [Compound 22A]	38.5	23.7	8.4	–	–	–
